Publication PMC11768104, “Identification of Two Flavonoids as New and Safe Inhibitors of Kynurenine Aminotransferase II via Computational and In Vitro Study” (Pharmaceuticals, 2025)
Read-outs that look alike come from different tables or passages of the source.

Assays:
[1] = target: T1, recombinant human KAT-II (kynurenine aminotransferase II) (Homo sapiens, UniProt Q8N5Z0); assay: microplate fluorescent kynurenine aminotransferase assay coupled to glutamate dehydrogenase; assay type: biochemical
T1 construct: gene AADAT; recombinant, purchased from R&D Systems (Bio-Techne)
T1 sequence (Q8N5Z0 30-425): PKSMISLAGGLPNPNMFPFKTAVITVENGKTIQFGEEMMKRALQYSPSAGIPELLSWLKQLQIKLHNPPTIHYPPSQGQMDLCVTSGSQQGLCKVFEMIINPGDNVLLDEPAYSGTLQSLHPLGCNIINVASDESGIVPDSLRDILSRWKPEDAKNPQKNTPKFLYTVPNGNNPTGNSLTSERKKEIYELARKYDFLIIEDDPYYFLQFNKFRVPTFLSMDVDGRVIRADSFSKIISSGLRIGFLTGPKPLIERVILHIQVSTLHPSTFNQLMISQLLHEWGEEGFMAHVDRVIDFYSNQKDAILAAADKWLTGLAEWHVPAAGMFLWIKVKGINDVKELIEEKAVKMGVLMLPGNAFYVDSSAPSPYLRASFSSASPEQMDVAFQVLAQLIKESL

[2] = target: T1, recombinant human KAT-II (kynurenine aminotransferase II); assay: Lineweaver-Burk analysis, same fluorescent assay; assay type: biochemical
Experimental: Lineweaver-Burk analysis, same fluorescent assay on recombinant human KAT-II (kynurenine aminotransferase II) | competitive inhibition constant (Ki) for herbacetin and (-)-Epicatechin was calculated

Compound | IC50 ([1]; 1 mM L-KYN, 50 µM α-ketoglutaric acid, 5 µM PLP, pH 7.5, 30 min pre-incubation at room temperature, irreversible (binds PLP), covalent, non-competitive, error printed as 1.83) [µM] | IC50 [1] [µM] | Ki [2] [µM]
N[C@H]1Cc2ccccc2N(O)C1=O [PF-04859989, reference compound] | 0.0279 ± 0.00181 |  | 
O=c1c(O)c(-c2ccc(O)cc2)oc2c(O)c(O)cc(O)c12 [herbacetin] |  | 5.98 ± 0.18 | 7.64 ± 0.46
Oc1cc(O)c2c(c1)O[C@H](c1ccc(O)c(O)c1)[C@H](O)C2 [(-)-Epicatechin] |  | 8.76 ± 0.76 | 9.23 ± 0.39
